The values that follow come from patent US8828992B2, “Substituted azole derivatives, pharmaceutical composition containing the derivatives, and method for treating Parkinson's disease using the same” (priority 2009, dated 2014).

Structures are written as SMILES.

The target in one assay is T1, Monoamineoxidase B type human-derived enzyme (Homo sapiens, UniProt P27338).
T1 sequence (P27338 1-520): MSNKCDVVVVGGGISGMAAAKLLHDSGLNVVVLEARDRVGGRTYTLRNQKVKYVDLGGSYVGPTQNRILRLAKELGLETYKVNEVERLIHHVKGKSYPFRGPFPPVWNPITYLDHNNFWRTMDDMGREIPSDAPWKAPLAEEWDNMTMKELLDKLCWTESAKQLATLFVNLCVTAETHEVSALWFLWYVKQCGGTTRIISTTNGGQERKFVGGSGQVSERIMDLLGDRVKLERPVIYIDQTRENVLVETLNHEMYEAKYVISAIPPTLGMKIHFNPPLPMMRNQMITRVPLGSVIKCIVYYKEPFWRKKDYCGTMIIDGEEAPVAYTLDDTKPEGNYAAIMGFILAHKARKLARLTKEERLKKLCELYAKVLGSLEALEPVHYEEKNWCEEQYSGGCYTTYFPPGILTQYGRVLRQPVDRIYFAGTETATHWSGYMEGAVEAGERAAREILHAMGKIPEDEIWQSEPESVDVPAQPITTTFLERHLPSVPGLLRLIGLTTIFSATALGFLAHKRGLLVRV
Nature of the assay: Inhibitory effects on the activity of MAO-B (Amplex Red fluorescence, benzylamine substrate). The assay is classed as biochemical. The conditions noted are these: read-out: Inhibitory effects (%) on the activity of MAO-B. The protocol: Monoamineoxidase A or B type human-derived enzyme (5 mg/ml) was each diluted with 0.05 M sodium phosphate buffer (pH 7.4) to yield a dilution of 1:200, and then 100 μl of an enzyme buffer containing 2 μl of a compound 1 solution at the corresponding concentration was placed in a test plate (flat-bottom) and incubated for 30 minutes.
100 μl of a working buffer containing 400 μM of Amplex Red reagent, 2 U/ml horseradish peroxidase, and 2 mM substrate (tyramine for MAO-A and benzylamine for MAO-B) in 0.05 M sodium phosphate buffer (pH 7.4) was mixed with a pre-incubated enzyme buffer at 1:1 and measured using fluorescence (EX: 563 nm & EM: 587 nm) for 30 minutes.
Regarding `NC(=O)OCc1nc(-c2ccc(OCc3ccccc3)cc2)no1` [Example 2, carbamic acid 3-(4-benzyloxy-phenyl)-[1,2,4]oxadiazol-5-ylmethyl ester], the inhibition at 0.01 µM worked out at 95%.

`NC(=O)OCc1cc(-c2ccc(OCC3CCCC3)cc2)no1` [Example 193, Carbamic acid 3-(4-cyclopentylmethoxy-phenyl)-isoxazol-5-ylmethyl ester]: the inhibition at 0.01 µM came to 88.1%.

The assay is the same for the next values; noted with them: treatment concentration 10 nM.
Take `CC(C)(C)[N+]([O-])=Cc1cccc(COc2ccc(-c3cc(COC(N)=O)on3)cc2)c1` [Example 204, carbamic acid 3-{4-[3-(t-butylnitronyl)-benzyloxy]-phenyl}-isoxazol-5-ylmethyl ester]: the “Inhibitory effects (%) on the activity of MAO-B” value amounted to 98.8%.

Still in this assay, the particulars now being: treatment concentration 10 nM; read-out: Inhibitory effects (%) on the activity of MAO-B.
Take `Cc1nccn1Cc1cc(-c2ccc(OCc3ccccc3)cc2)no1` [Example 140, 3-(4-benzyloxy-phenyl)-5-(2-methyl-imidazol-1-ylmethyl)-isoxazole]: the inhibition at 0.01 µM was found to be 91.7%.

Consider `c1ccc(COc2ccc(-c3cc(Cn4cncn4)on3)cc2)cc1` [Example 144, 1-[3-(4-benzyloxy-phenyl)-isoxazol-5-ylmethyl]-1H-[1,2,4]triazole], for which the inhibition at 0.01 µM was determined as 97.3%.

`c1ccc(COc2ccc(-c3cc(Cn4ccnn4)on3)cc2)cc1` [Example 145, 1-[3-(4-benzyloxy-phenyl)-isoxazol-5-ylmethyl]-1H-[1,2,3]triazole]: the inhibition at 0.01 µM turned out to be 39.2%.

In the case of `c1ccc(COc2ccc(-c3cc(Cn4ncnn4)on3)cc2)cc1` [Example 146, 2-[3-(4-benzyloxy-phenyl)-isoxazol-5-ylmethyl]-2H-tetrazole], the inhibition at 0.01 µM came to 86%.

Regarding `CN(C)Cc1cc(-c2ccc(OCc3ccccc3)cc2)no1` [Example 150, [3-(4-benzyloxy-phenyl)-isoxazol-5-ylmethyl]-dimethyl-amine], the inhibition at 0.01 µM was 97.4%.

As to `CCN(CC)Cc1cc(-c2ccc(OCc3ccccc3)cc2)no1` [Example 151, [3-(4-benzyloxy-phenyl)-isoxazol-5-ylmethyl]-diethyl-amine], the inhibition at 0.01 µM was 96.8%.

With `Fc1ccc(COc2ccc(-c3cc(Cn4ccnc4)on3)cc2)c(F)c1` [Example 154, 3-[4-(2,4-difluoro-benzyloxy)-phenyl]-5-imidazol-1-ylmethyl-isoxazole], the inhibition at 0.01 µM turned out to be 82.7%.

Take `Fc1cc(F)c(COc2ccc(-c3cc(Cn4ccnc4)on3)cc2)c(F)c1` [Example 155, 5-imidazol-1-ylmethyl-3-[4-(2,4,6-trifluoro-benzyloxy)-phenyl]-isoxazole]: the inhibition at 0.01 µM was 70.7%.

On to `Fc1ccc(COc2ccc(-c3cc(Cn4ccnc4)on3)cc2)cc1` [Example 156, 3-[4-(4-fluoro-benzyloxy)-phenyl]-5-imidazol-1-ylmethyl-isoxazole], for which the inhibition at 0.01 µM was found to be 74.5%.

Consider `Clc1ccc(COc2ccc(-c3cc(Cn4ccnc4)on3)cc2)cc1` [Example 157, 3-[4-(4-chloro-benzyloxy)-phenyl]-5-imidazol-1-ylmethyl-isoxazole], for which the inhibition at 0.01 µM worked out at 37.2%.

On to `NC(=O)C(CO)NCc1cc(-c2ccc(OCc3ccccc3)cc2)no1` (stereo not shown) [Example 167, 2-{[3-(4-benzyloxy-phenyl)-isoxazol-5-ylmethyl]-amino}-3-hydroxy-propionamide], for which the inhibition at 0.01 µM is 21.8%.

Regarding `OCCNCc1cc(-c2ccc(OCc3ccccc3)cc2)no1` [Example 168, 2-{[3-(4-benzyloxy-phenyl)-isoxazol-5-ylmethyl]-amino}-ethanol], the inhibition at 0.01 µM stood at 44.7%.

In the case of `COCCNCc1cc(-c2ccc(OCc3ccccc3)cc2)no1` [Example 174, [3-(4-benzyloxy-phenyl)-isoxazol-5-ylmethyl]-(2-methoxy-ethyl)-amine], the inhibition at 0.01 µM was 52.7%.

For `C=CCNCc1cc(-c2ccc(OCc3ccccc3)cc2)no1` [Example 176, Allyl-[3-(4-benzyloxy-phenyl)-isoxazol-5-ylmethyl]-amine], the inhibition at 0.01 µM turned out to be 71.5%.

For the molecule `NC(=O)OCCNCc1cc(-c2ccc(OCc3ccccc3)cc2)no1` [Example 177, Carbamic acid 2-{[3-(4-benzyloxy-phenyl)-isoxazol-5-ylmethyl]-amino}-ethyl ester], the inhibition at 0.01 µM is 31.7%.

Regarding `C#CCN(C)Cc1cc(-c2ccc(OCc3ccccc3)cc2)no1` [Example 178, [3-(4-benzyloxy-phenyl)-isoxazol-5-ylmethyl]-methyl-prop-2-ynyl-amine], the inhibition at 0.01 µM worked out at 64%.

As for `CC(C)c1nccn1Cc1cc(-c2ccc(OCc3ccccc3)cc2)no1` [Example 179, 3-(4-benzyloxy-phenyl)-5-(2-isopropyl-imidazol-1-ylmethyl)-isoxazole], the inhibition at 0.01 µM came out at 26.7%.

On to `CCc1nc(C)cn1Cc1cc(-c2ccc(OCc3ccccc3)cc2)no1` [Example 186, 3-(4-benzyloxy-phenyl)-5-(2-ethyl-4-methyl-imidazol-1-ylmethyl)-isoxazole], for which the inhibition at 0.01 µM came to 51.2%.

`NC(=O)OCc1cc(-c2ccc(OCc3c(F)cccc3Cl)cc2)no1` [Example 199, Carbamic acid 3-[4-(2-chloro-6-fluorobenzyloxy)-phenyl]-isoxazol-5-ylmethyl ester]: the inhibition at 0.01 µM amounted to 83.2%.

`Cc1cccc(COc2ccc(-c3cc(COC(N)=O)on3)cc2)c1` [Example 200, carbamic acid 3-[4-(3-methyl-benzyloxy)-phenyl]-isoxazol-5-ylmethyl ester]: the inhibition at 0.01 µM was 87.6%.

Regarding `NC(=O)OCc1cc(-c2ccc(OCc3ccccc3C(F)(F)F)cc2)no1` [Example 201, carbamic acid 3-[4-(2-trifluoromethyl-benzyloxy)-phenyl]-isoxazol-5-ylmethyl ester], the inhibition at 0.01 µM was determined as 72.4%.

As to `NC(=O)OCc1cc(-c2ccc(OCc3ccc4c(c3)OCO4)cc2)no1` [Example 203, carbamic acid 3-[4-(benzo[1,3]dioxol-5-ylmethoxy)-phenyl]-isoxazol-5-ylmethyl ester], the inhibition at 0.01 µM was found to be 93%.

Still in this assay, the particulars now being: treatment concentration 100 nM.
Regarding `NC(=O)OCc1cc(-c2ccc(OCc3ccc(F)cc3F)cc2)no1` [Example 196, carbamic acid 3-[4-(2,4-difluoro-benzyloxy)-phenyl]-isoxazol-5-ylmethyl ester], the inhibition at 0.1 µM is 97.1%.

Take `NC(=O)OCc1cc(-c2ccc(OCc3cc(F)ccc3F)cc2)no1` [Example 197, carbamic acid 3-[4-(2,5-difluoro-benzyloxy)-phenyl]-isoxazol-5-ylmethyl ester]: the inhibition at 0.1 µM was 96.7%.

Turning to `NC(=O)OCc1cc(-c2ccc(OCc3ccc(Cl)cc3Cl)cc2)no1` [Example 198, carbamic acid 3-[4-(2,4-dichlorobenzyloxy)-phenyl]-isoxazol-5-ylmethyl ester], the inhibition at 0.1 µM was 95.7%.

Molecule `NC(=O)OCc1cc(-c2ccc(OCc3ccc(C(F)(F)F)cc3)cc2)no1` [Example 202, carbamic acid 3-[4-(4-trifluoromethyl-benzyloxy)-phenyl]-isoxazol-5-ylmethyl ester] gave an inhibition at 0.1 µM of 95.5%.

The next assay deals with dopamine (DA) in the striatum of a MPTP-treated mouse. Kind of assay: Combined administration with Levodopa group: dopamine in the striatum of MPTP-treated mouse (HPLC). It is filed as in vivo. The conditions noted are these: compound 1 mg/kg PO co-administered with Levodopa group (Levodopa 50 mg/kg + Benzerazide 25 mg/kg IP); 1 hr after Levodopa. Here is the method: MPTP (20 mg/kg, free base; Sigma, St. louis, Mo.) was administered to an 8 week old (20-25 g) male C57BL/6 test mouse intraperitoneally at the interval of 2 hours to construct a model.
In order to observe the effects of combined administration of a compound of the present invention and Levodopa, the compound of the present invention was dissolved in a solution containing 0.02 ml of dimethylsulfoxide (DMSO), 0.02 ml of Cremophor, 0.08 ml of polyethyleneglycol (PEG), and 0.08 ml of physiological saline. The resulting solution was orally administered at doses of 1 mg/kg one week after the MPTP treatment, and a Levodopa group containing Levodopa at 50 mg/kg and Benzerazide at 25 mg/kg was intraperitoneally administered 1 hour later.
A single administration of the Levodopa group in the following Table 4 indicates values resulting from a MPTP (toxin) treatment followed by an administration of the Levodopa group compared to the treatment results of a Levodopa single administration group of Levodopa and Benzerazide.
At 1 hour and 3 hours after administration of Levodopa, the animals were sacrificed by cervical vertebra dislocation and the brain tissues were immediately isolated from the animals. 0.5 me of iced solution for HPLC analysis (0.1 M perchloric acid and 0.1 mM EDTA) was added to a striatum obtained from the isolated brain tissues, and an ultrasonic grinder was used to prepare a tissue homogenate. The tissue homogenate was centrifuged at 12,000 rpm for 15 minutes, and its supernatant was filtered through nitrocellulose membrane filter (0.2 um, Millipore). For HPLC analysis, uBondapak™ C18 column (4.6×150 mm, particle size 10 μm: Shisheido, Japan) was used, the flow rate of the mobile phase (0.07 M monobasic sodium phosphate, 1 mM sodium octasulfonic acid, 0.1 uM EDTA, 5% acetonitrile, pH 3.2) was maintained at 0.5 me/min, and the electrode potential of the electrochemical detector (CouloChem III, ESA, Japan) was set at 350 mV.
As for `NC(=O)OCc1nc(-c2ccc(OCc3ccccc3)cc2)no1` [Example 2, carbamic acid 3-(4-benzyloxy-phenyl)-[1,2,4]oxadiazol-5-ylmethyl ester], the “Concentration of dopamine compared to a control group %, 1 hr” value was 106.12%.

Still in this assay, the particulars now being: compound 1 mg/kg PO co-administered with Levodopa group (Levodopa 50 mg/kg + Benzerazide 25 mg/kg IP); 3 hr after Levodopa.
`NC(=O)OCc1nc(-c2ccc(OCc3ccccc3)cc2)no1` [Example 2, carbamic acid 3-(4-benzyloxy-phenyl)-[1,2,4]oxadiazol-5-ylmethyl ester]: the “Concentration of dopamine compared to a control group %, 3 hr” value came to 43.6%.
